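Protocol summary: plate cells (96-well), add compound at 5 concentrations, incubate 48 h, interpolate endpoints linearly. GI50 is the concentration that inhibits growth by half.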 Activity calls are given as the source filed them. No stated cut-off is given here; in the data, active = GI50 up to about 1.1 µM and inactive = higher.
Columns and labels:
Test in all cases: DTP human tumour cell line panel, 48 h
[1] = test system: ACHN
[2] = test system: LOX IMVI
[3] = test system: HCT-15
[4] = test system: MDA-N
[5] = test system: Malme-3M
[6] = test system: SNB-19
[7] = test system: TK-10
[8] = test system: MOLT-4
[9] = test system: SNB-75
[10] = test system: UACC-62
[11] = test system: SK-OV-3
[12] = test system: BT-549
[13] = test system: DU-145
[14] = test system: CCRF-CEM
[15] = test system: SF-295
[16] = test system: SW-620
[17] = test system: SN12C
[18] = test system: HCC 2998
[19] = test system: HL-60
[20] = test system: MDA-MB-231
[21] = test system: KM12
[22] = test system: HOP-92
[23] = test system: SK-MEL-5
[24] = test system: OVCAR-8
[25] = test system: A549
[26] = test system: CAKI-1
[27] = test system: SK-MEL-2
[28] = test system: OVCAR-5
[29] = test system: RXF 393
[30] = test system: 786-0
[31] = test system: NCI/ADR-RES
[32] = test system: COLO 205
[33] = test system: U-251
[34] = test system: EKVX
[35] = test system: SF-268
[36] = test system: RPMI-8226
[37] = test system: Hs-578T
[38] = test system: SK-MEL-28
[39] = test system: MDA-MB-435
[40] = test system: OVCAR-4
[41] = test system: SF-539
[42] = test system: T47D
[43] = test system: NCI-H522
[44] = test system: HOP-62
[45] = test system: HCT-116
[46] = test system: UACC-257
[47] = test system: UO-31
[48] = test system: M14
[49] = test system: PC-3
[50] = test system: IGROV-1
[51] = test system: HT-29
[52] = test system: NCI-H23
[53] = test system: A498
[54] = test system: OVCAR-3
[55] = test system: NCI-H226
[56] = test system: SR
[57] = test system: MCF7
[58] = test system: NCI-H460
[59] = test system: K562

Measured: GI50

COc1ccc(C(OCC2OC(n3cc(C)c(=O)[nH]c3=O)CC2n2cc(Cn3cc(Cl)c(=O)[nH]c3=O)nn2)(c2ccccc2)c2ccccc2)cc1 (stereo not drawn)
inactive: [1] > 100 µM | [2] > 100 µM | [4] 9.14 µM | [5] > 100 µM | [6] > 100 µM | [7] > 100 µM | [8] 4.7 µM | [9] > 100 µM | [10] 38 µM | [11] > 100 µM | [12] 82.6 µM | [13] > 100 µM | [14] 2.95 µM | [15] > 100 µM | [16] > 100 µM | [17] > 100 µM | [18] > 100 µM | [19] 3 µM | [20] 27.6 µM | [21] > 100 µM | [22] 28.8 µM | [23] > 100 µM | [24] > 100 µM | [25] > 100 µM | [26] > 100 µM | [27] > 100 µM | [28] > 100 µM | [29] > 100 µM | [30] > 100 µM | [31] > 100 µM | [32] > 100 µM | [33] 24.8 µM | [34] > 100 µM | [35] > 100 µM | [36] 4.31 µM | [37] 65 µM | [38] 87.5 µM | [39] 7.18 µM | [40] > 100 µM | [41] > 100 µM | [42] > 100 µM | [43] > 100 µM | [44] > 100 µM | [45] 33.9 µM | [46] > 100 µM | [47] > 100 µM | [48] > 100 µM | [49] 13.6 µM | [50] 39.5 µM | [51] > 100 µM | [52] > 100 µM | [53] > 100 µM | [54] > 100 µM | [55] > 100 µM | [56] 4.02 µM | [57] 21.8 µM
> 100 µM: [3]

CCOC(=O)C(NC(=O)OCc1ccccc1)C(=O)O (stereo not drawn)
inactive: [1] > 100 µM | [2] > 100 µM | [4] > 100 µM | [5] > 100 µM | [58] > 100 µM | [6] > 100 µM | [7] > 100 µM | [8] > 100 µM | [9] > 100 µM | [10] > 100 µM | [12] > 100 µM | [13] > 100 µM | [14] > 100 µM | [15] > 100 µM | [16] > 100 µM | [17] > 100 µM | [18] > 100 µM | [19] > 100 µM | [20] > 100 µM | [21] > 100 µM | [22] > 100 µM | [23] > 100 µM | [24] > 100 µM | [25] > 100 µM | [26] > 100 µM | [27] > 100 µM | [28] > 100 µM | [59] > 100 µM | [29] > 100 µM | [30] > 100 µM | [31] > 100 µM | [32] > 100 µM | [33] > 100 µM | [34] > 100 µM | [35] > 100 µM | [36] > 100 µM | [37] > 100 µM | [38] > 100 µM | [39] > 100 µM | [40] > 100 µM | [41] > 100 µM | [42] > 100 µM | [43] > 100 µM | [44] > 100 µM | [45] > 100 µM | [46] > 100 µM | [47] > 100 µM | [48] > 100 µM | [49] > 100 µM | [50] > 100 µM | [51] > 100 µM | [52] > 100 µM | [53] > 100 µM | [54] > 100 µM | [55] > 100 µM | [56] > 100 µM | [57] > 100 µM
> 100 µM: [3]

CCCCCCCCCCCC[C@@H](O)[C@H]1CCC([C@H](O)CCCCC(=O)CCCCCCCC2=C[C@H](C)OC2=O)O1 (stereo partly drawn)
17.9 µM: [3]
active: [19] 0.991 µM | [23] 0.0315 µM | [52] 0.0957 µM | [56] 0.0773 µM
inactive: [1] > 33.6 µM | [2] 2.34 µM | [4] > 35.2 µM | [5] > 50 µM | [58] 2.26 µM | [6] > 28.2 µM | [7] > 50 µM | [8] 2.62 µM | [9] > 37.9 µM | [10] 17.4 µM | [11] > 50 µM | [12] 9.06 µM | [13] > 50 µM | [14] 4.59 µM | [15] 20.1 µM | [16] > 29.1 µM | [17] > 39 µM | [18] > 50 µM | [20] > 41.7 µM | [21] 13.1 µM | [22] > 27 µM | [24] 28.5 µM | [25] 10.4 µM | [26] > 36.4 µM | [27] > 26.1 µM | [28] > 50 µM | [59] 2.98 µM | [29] 11.6 µM | [30] > 31.6 µM | [31] 12.6 µM | [32] 12.5 µM | [33] 13.3 µM | [34] 14.1 µM | [35] 18.1 µM | [36] 2.5 µM | [37] 11.3 µM | [38] 19.2 µM | [39] > 21.3 µM | [40] > 24.9 µM | [41] > 50 µM | [42] 15.7 µM | [43] 15.4 µM | [45] 3.01 µM | [46] 7.96 µM | [47] 7.16 µM | [48] 15 µM | [49] 14.6 µM | [50] > 50 µM | [51] 14.6 µM | [53] 26.2 µM | [54] > 50 µM | [55] 15.8 µM | [57] 2.45 µM

— ChEMBL document CHEMBL1201862, “PubChem BioAssay data set” (2004)
